From patent US20040028714A1, “Composition having insect repellent characteristics” (priority 2000, published 2004)
Several values for one entry are separate records, joined by “and”; a condition that tells them apart may be missing. Equal entries are not always repeated.

What was measured:
[1] = test system: Casemaking Clothes Moths (Tinea pellionella); test: Adult clothes moth repellency on treated woolen cloth (Example 5); type: in vivo; details: fabric soaked in 20 g/L in ethanol, 2 days after moth introduction; for Moths Present, Treated Section, Total (%) / Moths Present, Untreated Section, Total (%): share of moths found in the two boxes; for The Number of Moths Present, Treated Section / The Number of Moths Present, Untreated Section: single replicates (n = 50); for The Number of Moths Present, Treated Section, Total / The Number of Moths Present, Untreated Section, Total: total of 4 replicates
Experimental: The effectiveness of compound 2 (example 1) to reduce the presence of cloth moths on woolen cloth was determined and was directly compared to the repellency of the well known moth repellents Citronellol and Farnesol.
The study was conducted in an air conditioned laboratory at a temperature of 22°±2° C. under a normal day/night cycle, using Casemaking Clothes Moths (Tinea pellionella) of mixed sex and age. The study is conducted over a 5 days period and the repellent effectiveness was assessed as follows:
Adults—2 days after insect introduction
A 10 cm×10 cm square of black woolen fabric free of bactericide) was soaked in a solution of the candidate repellent in ethanol at 20 g/L, squeezed and allowed to dry. The woollen square was placed in a small box (5 cm×10 cm×10 cm) which was open at one end to allow entry of adult clothes moth.
A similar square of fabric treated with ethanol (control) was placed in another box of the same size.
These two boxes were placed in an aquarium and 50 mixed sex adult moths were added. These were provided with food and water and left for 5 days.
At the end of 2 days the number of adult moths in each box was counted.
The above was repeated 3 times to provide 4 replicates.

[2] = test system: Black Ants (Ochetellus sp); test: Ant repellency on half-treated formica (Example 4); type: in vivo; details: ants, 20 mg/m^2 on formica
Experimental: The effectiveness of compound 2 (example 1) as an insect repellent was determined using ants exposed to a formica surface partially treated/partially untreated with compound 2, and was directly compared to the repellency of the well known insect repellents Farnesol and Dihydrofarnesal.
The study was conducted in an air conditioned laboratory at a temperature of 22°±2° C. under a normal day/night cycle, using Black Ants (Ochetellus sp) of mixed sex and age. The study ws conducted over a 3 day period and the repellent effectiveness assessed 1, 2 and 3 days after ant introduction.
One half of a rectangle of formica 40 cm×30 cm was treated at 20 mg/m^2 with the test compounds. This was achieved by soaking a paper wipe (Rag On A Roll approximately 20 cm×20 cm) in a solution of the test compound in ethanol, squeezing out the excess liquid and wiping over the surface to give the required coverage. This was checked by weighing the cloth after application. The surface was allowed to dry. The other half was wiped with ethanol alone (untreated surface).
The treated formica rectangle was placed on the bench and a glass ring (diameter 20 cm) was placed on the rectangle. This had been treated with fluon to prevent ant escape.
A small plastic container 2 cm in diameter was placed on the formica, one on the treated surface and one on the untreated surface. The plastic container placed on the treated surface had repellent applied in the same way as the treated formica. The plastic container on the untreated surface was wiped with ethanol.
24 hours after treatment (1 day) 20 ants were added to the centre of the formica. No food and water was supplied for these ants. 2 hours after this the number of ants on the treated and untreated surfaces was counted.
The above was repeated 3 times to provide a total of 4 replicates.
The above was repeated at 2 days and 3 days. New ants were used at each time period.

Structure (SMILES) | Moths Present, Treated Section, Total (%) [1] | Moths Present, Untreated Section, Total (%) [1] | The Number of Moths Present, Treated Section [1] | The Number of Moths Present, Untreated Section [1] | The Number of Moths Present, Treated Section, Total [1] | The Number of Moths Present, Untreated Section, Total [1] | Percentage Dead ([2]; 1 day after treatment) [%] | Percentage Present, Treated Section ([2]; 1 day after treatment) [%] | Percentage Present, Untreated Section ([2]; 1 day after treatment) [%] | Percentage Dead ([2]; 2 days after treatment) [%] | Percentage Present, Treated Section ([2]; 2 days after treatment) [%] | Percentage Present, Untreated Section ([2]; 2 days after treatment) [%] | Percentage Dead ([2]; 3 days after treatment) [%] | Percentage Present, Treated Section ([2]; 3 days after treatment) [%] | Percentage Present, Untreated Section ([2]; 3 days after treatment) [%] | Percentage Dead, Average ([2]; average of days 1, 2 and 3) [%] | Percentage Present, Untreated Section, Average ([2]; average of days 1, 2 and 3) [%]
CC(C)=CCCC(C)CCO (centres unmarked) [Citronellol] | (23.9%) | (76.1%) | 7 and 0 and 5 and 14 | 20 and 12 and 26 and 25 | 26 | 83 | – | – | – | – | – | – | – | – | – | – | –
CC(C)=CCCC(C)=CCCC(C)=CCO [Farnesol, 3,7,11-Trimethyl-2,6,10-dodecatrien-1-ol] | (26.0%) | (74.0%) | 9 (2×) and 4 and 5 | 18 and 19 (2×) and 21 | 27 | 77 | 0 | 20.0 | 80.0 | 0 | 10.0 | 90.0 | 0 | 20.0 | 80.0 | 0 | 83.3
